Data as given in ChEMBL document CHEMBL3244359, “Aromatic hydroxylation of beta-adrenergic antagonists. 4- and 5-hydroxylation of 1-(isopropylamino)-3-[2-(allyloxy)phenoxy]-2-propanol (oxprenolol)” (J Med Chem, 1978).

What was measured:
[1] = Drug excretion in Sprague-Dawley rat urine treated with oxprenolol at 20 mg/kg, ip after 24 hrs by GC-CIMS analysis in presence of beta-glucuronidase and CH2N2; format: ADME, organism-based; set-up: dose 20 mg/kg, route intraperitoneal; conditions: in vivo
[2] = Retention time of the compound by gas chromatography; format: physicochemical
[3] = Drug excretion in Sprague-Dawley rat urine treated with oxprenolol at 20 mg/kg, ip after 24 hrs by GC-CIMS analysis; format: ADME, organism-based; set-up: dose 20 mg/kg, route intraperitoneal; conditions: in vivo

SMILES: C=CCOc1ccc(OC)cc1OCC(O)CNC(C)C.O=C(O)C(F)(F)F (centres undefined)
- Drug excretion [1]: metabolite_detected
- Retention_time [2]: 11.8 min

SMILES: C=CCOc1ccccc1OCC(O)CNC(C)C.O=C(O)C(F)(F)F (centres undefined)
- Retention_time [2]: 5.7 min

SMILES: C=CCOc1c(OC)cccc1OCC(O)CNC(C)C.O=C(O)C(F)(F)F (centres undefined)
- Retention_time [2]: 9.6 min

SMILES: C=CCOc1cccc(OC)c1OCC(O)CNC(C)C.O=C(O)C(F)(F)F (centres undefined)
- Retention_time [2]: 10.5 min

SMILES: C=CCOc1cc(OC)ccc1OCC(O)CNC(C)C.O=C(O)C(F)(F)F (centres undefined)
- Drug excretion [1]: metabolite_detected
- Retention_time [2]: 13.1 min

SMILES: C=CCOc1cc(O)ccc1OCC(O)CNC(C)C (centres undefined)
- Drug excretion [3]: metabolite_detected

SMILES: C=CCOc1ccc(O)cc1OCC(O)CNC(C)C (centres undefined)
- Drug excretion [3]: metabolite_detected
